pIC50: −log10 of the molar value. Counter-ions that a name gives are not always drawn.
target: IRAK4 (Homo sapiens (Human), UniProt Q9NWZ3); assay: IRAK4 kinase activity, IMAP fluorescence polarization assay; assay type: biochemical; conditions: 100 μM ATP, 0.5 nM GST tagged IRAK4; read-out: IRAK4 IC50
Procedure: The kinase activity of IRAK4 is determined by its ability to catalyze the phosphorylation of a fluorescent polypeptide substrate. The extent of phosphorylation is measured using IMAP technology (Molecular Devices) where the phosphorylated fluorescent substrate binds to the large M(III)-based nanoparticles which reduces the rotational speed of the substrate and thus increases its fluorescent polarization (FP).
Assay Procedure: A 20 μl reaction mixture contains 10 mM TriHCl, pH 7.2, 0.5 nM GST tagged IRAK4 (SignalChem), 100 nM fluorescent peptide substrate (RP7030, Molecular Devices), 100 μM ATP, 1 mM DTT, 1 mM MgCl2, and 0.01% Tween 20. The reaction is initiated by the addition of ATP. After incubation for 30 minutes at 25° C., 60 μl of Progressive IMAP Reagent (Molecular Devices) is added to stop the reaction. Change in RP7030's FP is determined by a FP reader (Analyst HT, LJL BioSystems)

Sequence of IRAK4 (Q9NWZ3 whole entry): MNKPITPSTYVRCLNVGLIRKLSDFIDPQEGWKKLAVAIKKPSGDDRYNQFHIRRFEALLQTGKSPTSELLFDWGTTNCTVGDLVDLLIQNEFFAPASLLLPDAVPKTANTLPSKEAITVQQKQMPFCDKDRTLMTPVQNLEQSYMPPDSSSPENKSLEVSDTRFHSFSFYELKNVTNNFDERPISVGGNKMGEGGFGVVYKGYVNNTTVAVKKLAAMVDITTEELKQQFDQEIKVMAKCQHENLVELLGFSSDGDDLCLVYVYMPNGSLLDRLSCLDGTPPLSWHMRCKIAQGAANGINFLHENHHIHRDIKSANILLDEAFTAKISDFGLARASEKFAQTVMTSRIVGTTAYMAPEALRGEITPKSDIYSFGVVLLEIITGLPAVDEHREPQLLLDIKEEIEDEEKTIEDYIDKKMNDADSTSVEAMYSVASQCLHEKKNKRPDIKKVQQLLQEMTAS

Row | SMILES | pIC50
1 | C[C@@]1(O)[C@H](O)[C@@H](CO)C[C@H]1Nc1nc(NC2CCC2)[nH]c(=O)c1-c1nc2ccccc2s1 [Example 41, 5-(Benzo[d]thiazol-2-yl)-2-(cyclobutylamino)-6-((1R,2S,3R,4R)-2,3-dihydroxy-4-(hydroxymethyl)-2-methylcyclopentylamino)pyrimidin-4(3H)-one.HCl] | 6.34
2 | CC(C)[C@H]1C[C@@H](Nc2nc(N3CCOCC3)[nH]c(=O)c2-c2nc3ccccc3s2)[C@H](O)[C@@H]1O [Example 42, 5-(Benzo[d]thiazol-2-yl)-6-((1R,2S,3R,4R)-2,3-dihydroxy-4-isopropylcyclopentylamino)-2-morpholinopyrimidin-4(3H)-one.HCl] | 7.14
3 | CC(C)[C@H]1C[C@@H](Nc2nc[nH]c(=O)c2-c2nc3ccccc3s2)[C@H](O)[C@@H]1O [Example 43, 5-(Benzo[d]thiazol-2-yl)-6-((1R,2S,3R,4R)-2,3-dihydroxy-4-isopropylcyclopentylamino)pyrimidin-4(3H)-one.HCl] | 6.07
4 | CC(C)(O)[C@H]1C[C@@H](Nc2nc(NC3CCC3)[nH]c(=O)c2-c2nc3ccccc3s2)[C@H](O)[C@@H]1O [Example 45, 5-(Benzo[d]thiazol-2-yl)-2-(cyclobutylamino)-6-((1R,2S,3R,4S)-2,3-dihydroxy-4-(2-hydroxypropan-2-yl)cyclopentylamino)pyrimidin-4(3H)-one.HCl] | 7.19
5 | O=c1[nH]c(NC2CCC2)nc(N[C@@H]2CC[C@@H](O)[C@H]2O)c1-c1nc2ccccc2s1 [Example 48, 5-(Benzo[d]thiazol-2-yl)-2-(cyclobutylamino)-6-((1R,2S,3R)-2,3-dihydroxycyclopentylamino)pyrimidin-4(3H)-one.HCl] | 5.65
6 | O=c1[nH]c(NC2CCC2)nc(NC[C@H](O)CO)c1-c1nc2ccccc2s1 [Example 49, (S)-5-(Benzo[d]thiazol-2-yl)-2-(cyclobutylamino)-6-(2,3-dihydroxypropylamino)pyrimidin-4(3H)-one.HCl] | 5.27
7 | O=c1[nH]c(Nc2cncnc2)nc(N[C@@H]2C[C@H](CO)[C@@H](O)[C@H]2O)c1-c1nc2ccccc2s1 [Example 51, 5-(Benzo[d]thiazol-2-yl)-6-(((1R,2S,3R,4R)-2,3-dihydroxy-4-(hydroxymethyl)cyclopentyl)amino)-2-(pyrimidin-5-ylamino)pyrimidin-4(3H)-one.HCl] | 6.46
8 | O=c1[nH]c(Nc2ccc(F)cc2)nc(N[C@@H]2C[C@H](CO)[C@@H](O)[C@H]2O)c1-c1nc2ccccc2s1 [Example 52, 5-(Benzo[d]thiazol-2-yl)-6-((1R,2S,3R,4R)-2,3-dihydroxy-4-(hydroxymethyl)cyclopentylamino)-2-(4-fluorophenylamino)pyrimidin-4(3H)-one.HCl] | 6.55
9 | O=c1[nH]c(Nc2ccccc2)nc(N[C@@H]2C[C@H](CO)[C@@H](O)[C@H]2O)c1-c1nc2ccccc2s1 [Example 53, 5-(Benzo[d]thiazol-2-yl)-6-((1R,2S,3R,4R)-2,3-dihydroxy-4-(hydroxymethyl)cyclopentylamino)-2-(phenylamino)pyrimidin-4(3H)-one.HCl] | 6.49
10 | O=c1[nH]c(Nc2ccncc2)nc(N[C@@H]2C[C@H](CO)[C@@H](O)[C@H]2O)c1-c1nc2ccccc2s1 [Example 54, 5-(Benzo[d]thiazol-2-yl)-6-((1R,2S,3R,4R)-2,3-dihydroxy-4-(hydroxymethyl)cyclopentylamino)-2-(pyridin-4-ylamino)pyrimidin-4(3H)-one.HCl] | 6.18
11 | Cc1cc2sc(-c3c(N[C@@H]4C[C@H](CO)[C@@H](O)[C@H]4O)nc(N4CCOCC4)[nH]c3=O)nc2c(C)n1 [Example 57, 6-(((1R,2S,3R,4R)-2,3-Dihydroxy-4-(hydroxymethyl)cyclopentyl)amino)-5-(4,6-dimethylthiazolo[4,5-c]pyridin-2-yl)-2-morpholinopyrimidin-4(3H)-one.HCl] | 6.03
12 | O=c1[nH]c(N2CCCCC2)nc(N[C@@H]2C[C@H](CO)[C@@H](O)[C@H]2O)c1-c1nc(-c2ccc(F)cc2)cs1 [Example 59, 6-(((1R,2S,3R,4R)-2,3-Dihydroxy-4-(hydroxymethyl)cyclopentyl)amino)-5-(4-(4-fluorophenyl)thiazol-2-yl)-2-(piperidin-1-yl)pyrimidin-4(3H)-one HCl] | 7.65
13 | CCc1nc(N[C@@H]2C[C@H](CO)[C@@H](O)[C@H]2O)c(-c2nc3ccccc3s2)c(=O)[nH]1 [Example 61, 5-(Benzo[d]thiazol-2-yl)-6-((1R,2S,3R,4R)-2,3-dihydroxy-4-(hydroxymethyl)cyclopentylamino)-2-ethylpyrimidin-4(3H)-one.HCl] | 5.93

Continued by rising pIC50, values first:

Row | pIC50 | SMILES
14 | 7.22 | COCCCNc1nc(N[C@@H]2C[C@H](CO)[C@@H](O)[C@H]2O)c(-c2nc3ccccc3s2)c(=O)[nH]1 [Example 40, 5-(Benzo[d]thiazol-2-yl)-6-(((1R,2S,3R,4R)-2,3-dihydroxy-4-(hydroxymethyl)cyclopentyl)amino)-2-((3-methoxypropyl)amino)pyrimidin-4(3H)-one HCl]
15 | 7.64 | CC(C)[C@H]1C[C@@H](Nc2nc(N3CCC(c4cncnc4)CC3)[nH]c(=O)c2-c2nc3ccccc3s2)[C@H](O)[C@@H]1O [Example 44, 5-(Benzo[d]thiazol-2-yl)-6-((1R,2S,3R,4R)-2,3-dihydroxy-4-isopropylcyclopentylamino)-2-(4-(pyrimidin-5-yl)piperidin-1-yl)pyrimidin-4(3H)-one.HCl]
16 | 7.64 | C[C@H]1C[C@@H](Nc2nc(N3CCOCC3)[nH]c(=O)c2-c2nc3ccccc3s2)[C@H](O)[C@@H]1O [Example 47, 5-(Benzo[d]thiazol-2-yl)-6-((1R,2S,3R,4S)-2,3-dihydroxy-4-methylcyclopentylamino)-2-morpholinopyrimidin-4(3H)-one.HCl]
17 | 8.08 | Cc1nccc2sc(-c3c(N[C@@H]4C[C@H](CO)[C@@H](O)[C@H]4O)nc(N4CCOCC4)[nH]c3=O)nc12 [Example 56, 6-(((1R,2S,3R,4R)-2,3-Dihydroxy-4-(hydroxymethyl)cyclopentyl)amino)-5-(4-methylthiazolo[4,5-c]pyridin-2-yl)-2-morpholinopyrimidin-4(3H)-one.HCl]
18 | 8.25 | O=c1[nH]c(N2CCOCC2)nc(N[C@@H]2C[C@H](CO)[C@@H](O)[C@H]2O)c1-c1nc(-c2ccc(F)cc2)cs1 [Example 58, 6-(((1R,2S,3R,4R)-2,3-Dihydroxy-4-(hydroxymethyl)cyclopentyl)amino)-5-(4-(4-fluorophenyl)thiazol-2-yl)-2-morpholinopyrimidin-4(3H)-one.HCl]
19 | 8.30 | C[C@H]1C[C@@H](Nc2nc(N3CCOCC3)[nH]c(=O)c2-c2ccc3ccccc3n2)[C@H](O)[C@@H]1O [Example 46, 6-((1R,2S,3R,4S)-2,3-Dihydroxy-4-methylcyclopentylamino)-2-morpholino-5-(quinolin-2-yl)pyrimidin-4(3H)-one.HCl]
20 | 8.60 | O=c1[nH]c(NC2CCC2)nc(N[C@@H]2C[C@H](CO)[C@@H](O)[C@H]2O)c1-c1nc2cnccc2s1 [Example 55, 2-(Cyclobutylamino)-6-((1R,2S,3R,4R)-2,3-dihydroxy-4-(hydroxymethyl)cyclopentylamino)-5-(thiazolo[4,5-c]pyridin-2-yl)pyrimidin-4(3H)-one.HCl]
